The values below come from ChEMBL document CHEMBL3879892, “Small molecule inhibition of PDZ-domain interaction” (2011).

Activity calls are given as the source filed them. No cut-off for these calls is given here.

Experiment [1] can be described thus: Antitumor activity against human LOX cells xenografted in immune deficient nude mouse assessed as tumor growth inhibition at 50 mg/kg, ip administered for 14 days measured after 2 weeks post last dose relative to control. In kind it is functional. Particulars: 336 h, read-out: TGI. On the technique in general: In xenograft studies the graft and the host belong to different species.

Experiment [2] can be described thus: Antitumor activity against human NCI-H460 cells xenografted in immune deficient nude mouse assessed as tumor growth inhibition at 50 mg/kg, ip administered for 14 days measured after 2 weeks post last dose relative to control. Particulars: 336 h, read-out: TGI. Type of experiment: functional.
The subject of a further experiment is NCI-H460. The experiment is described as follows: Inhibition of Dvl PDZ domain interaction with Fz protein in human NCI-H460 cells assessed as induction of apoptosis at 10 uM after 3 days by annexin V-FITC staining-based flow cytometry (reference value: 7.59 to 10.24%). Type of experiment: cell-based. Further details: scale not given: the % may be the effect or the level left. (A flow cytometer gives signals particle by particle.)

The subject of the next experiment is LOX. The experiment in a line: Inhibition of Dvl PDZ domain interaction with Fz protein in human LOX cells assessed as induction of apoptosis at 10 uM after 3 days by annexin V-FITC staining-based flow cytometry (reference value: 8.81 to 10.85%). Type of experiment: cell-based. The arrangement: scale not given: the % may be the effect or the level left.
Experiment [3] deals with T1, Membrane-associated guanylate kinase, WW and PDZ domain-containing protein 3 (Homo sapiens) (UniProt Q5TCQ9).
T1 sequence (whole entry): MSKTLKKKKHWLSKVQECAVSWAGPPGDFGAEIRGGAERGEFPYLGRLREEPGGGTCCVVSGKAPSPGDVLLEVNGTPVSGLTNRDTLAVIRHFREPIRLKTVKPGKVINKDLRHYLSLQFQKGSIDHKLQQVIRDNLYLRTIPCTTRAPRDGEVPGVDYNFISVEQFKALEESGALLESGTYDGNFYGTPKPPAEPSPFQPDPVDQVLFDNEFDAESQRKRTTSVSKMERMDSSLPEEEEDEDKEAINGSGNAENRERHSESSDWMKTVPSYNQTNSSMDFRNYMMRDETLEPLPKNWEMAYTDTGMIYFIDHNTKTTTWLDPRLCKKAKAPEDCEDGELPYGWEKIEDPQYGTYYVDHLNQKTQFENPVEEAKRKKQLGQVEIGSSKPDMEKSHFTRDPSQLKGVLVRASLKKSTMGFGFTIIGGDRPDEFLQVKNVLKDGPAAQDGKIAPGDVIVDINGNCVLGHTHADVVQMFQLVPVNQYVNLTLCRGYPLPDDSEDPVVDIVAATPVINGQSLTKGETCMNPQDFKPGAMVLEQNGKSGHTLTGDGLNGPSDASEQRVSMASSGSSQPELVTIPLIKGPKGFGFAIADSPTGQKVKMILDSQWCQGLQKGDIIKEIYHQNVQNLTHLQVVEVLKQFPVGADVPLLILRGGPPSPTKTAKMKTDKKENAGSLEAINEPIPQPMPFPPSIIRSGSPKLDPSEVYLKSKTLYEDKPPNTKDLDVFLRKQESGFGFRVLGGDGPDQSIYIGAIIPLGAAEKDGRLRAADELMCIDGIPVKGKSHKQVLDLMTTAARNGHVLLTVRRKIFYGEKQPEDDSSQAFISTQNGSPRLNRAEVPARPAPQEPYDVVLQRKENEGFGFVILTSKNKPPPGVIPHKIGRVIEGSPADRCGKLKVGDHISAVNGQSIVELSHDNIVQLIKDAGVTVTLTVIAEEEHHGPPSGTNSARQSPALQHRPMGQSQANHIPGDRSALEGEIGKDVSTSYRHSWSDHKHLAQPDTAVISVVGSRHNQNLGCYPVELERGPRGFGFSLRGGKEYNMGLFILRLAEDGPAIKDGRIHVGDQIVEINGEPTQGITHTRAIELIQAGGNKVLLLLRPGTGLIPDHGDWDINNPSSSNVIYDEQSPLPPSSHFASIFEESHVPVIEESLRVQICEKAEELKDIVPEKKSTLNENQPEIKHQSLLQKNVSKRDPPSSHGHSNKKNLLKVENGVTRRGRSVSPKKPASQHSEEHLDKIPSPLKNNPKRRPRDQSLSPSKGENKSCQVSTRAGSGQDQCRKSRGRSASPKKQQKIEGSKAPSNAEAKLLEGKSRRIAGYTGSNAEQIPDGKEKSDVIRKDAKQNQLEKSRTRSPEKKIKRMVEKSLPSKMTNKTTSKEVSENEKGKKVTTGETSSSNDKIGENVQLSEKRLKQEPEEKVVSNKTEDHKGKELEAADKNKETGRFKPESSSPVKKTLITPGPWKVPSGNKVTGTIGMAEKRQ
The experiment is described as follows: Inhibition of fluorescein labeled PFDEDQHTQITWV-COOH interaction with GST-fused MAGI-3 second PDZ domain (unknown origin) expressed in Escherichia coli BL21 (DE3) by fluorescence polarization assay.

For the compound `CCCCC(O)c1[nH]c2cc(C)c(C(=O)O)cc2c1CCc1ccccc1` (centres undefined), the inhibition in vivo at 50 mg/kg in experiment [1] lay within 66 to 82%; in experiment [2] it was 20 to 34%. Also, the Activity lay within 14.6 to 28.3% in the experiment on NCI-H460 and 13.4 to 18.5% with LOX. For the same compound, the inhibition entry in experiment [3] is “Active”.
Regarding `Cc1cc2[nH]c(C(O)CCc3ccccc3)c(CCc3ccccc3)c2cc1C(=O)O` (centres undefined), the figures for the Activity with NCI-H460 and in the experiment on LOX were 36.7% and 34.7%, respectively.
The corresponding values for `Cc1cc2[nH]c(C(O)c3ccccc3)c(CCCc3ccccc3)c2cc1C(=O)O` (centres undefined) are 37% and 65.3%.
